The values below come from patent US5416212A, “Anilide derivatives” (Taisho Pharmaceutical Co., Ltd., priority 1991, dated 1995).

Counter-ions that a name gives are not always drawn.

In one test the test system is Normal Rat. Kind of test: Test of Lipid Reduction in Normal Rat. The settings on record: compared with the control, oral 100 mg/kg for 3 days. It counts as in vivo, rat (male Wister). As to the method:
Test of Lipid Reduction in Normal Rat
Five 5-week-old male Wister rats per group were used as test animals. Each test drug was orally administered to the rat at a dose of 100 mg/kg for 3 days. A blood sample was taken from the rat having been deprive of food for 18 hours from the final administration, and the serum was separated. A total cholesterol value and a total triglyceride value were measured with an autoanalyzer (Hitachi 7150) in accordance with an enzyme method (Autosera, manufactured by Daiichi Kagaku K.K.). Lipoprotein was separated by a precipitation method (HDL-C.2, manufactured by Daiichi Kagaku K.K.), and the cholesterol in the lipoprotein was determined by an enzyme method. Five ml/kg of each test drug suspended in a 0.2% aqueous solution of sodium carboxymethyl cellulose was administered. For control, the same sodium carboxymethyl cellulose solution containing no test drug was administered.
Note: "Percent change" in Tables 2 and 3 is a rate of change in the respective cholesterol value compared with the control.
In the case of `CCCCCCCCCCC(C)(C)C(=O)Nc1c(OC)cc(OC)cc1OC` [Compound B, N-(2,4,6-Trimethoxyphenyl)-2,2-dimethyldodecylamide, reference compound], the “Cholesterol in High Density Lipoprotein, Percent Change” value is listed as 15.5%; the “Cholesterol in Low Density Lipoprotein, Percent Change” value is reported as 0.0%; the “Total Cholesterol in Serum, Percent Change” value turned out to be 7.1%; the “Total Triglyceride in Serum, Percent Change” value worked out at 18.8%.

Take `CC(C)c1cccc(C(C)C)c1NC(=O)CSCCCCCCN1CCN(c2ccccc2)CC1` [Compound 1, N-(2,6-Diisopropylphenyl)-2-[6-(4-phenylpiperazinyl)hexylthio]acetamide]: the “Cholesterol in High Density Lipoprotein, Percent Change” value was found to be 3.4%; the “Cholesterol in Low Density Lipoprotein, Percent Change” value is recorded as -50.8%; the “Total Cholesterol in Serum, Percent Change” value is recorded as -12.2%; the “Total Triglyceride in Serum, Percent Change” value was -41.6%.

Still in this test, the particulars now being: oral 100 mg/kg for 3 days, fasted 18 hours.
In the case of `CCCCCCCCCCC(C)(C)C(=O)Nc1c(OC)cc(OC)cc1OC` [Compound B, N-(2,4,6-Trimethoxyphenyl)-2,2-dimethyldodecylamide, reference compound], the “Cholesterol in High Density Lipoprotein, Measured Value” is 51.4 ± 2.2 mg/dL; the “Cholesterol in Low Density Lipoprotein, Measured Value” came out at 11.8 ± 5.1 mg/dL; the “Total Cholesterol in Serum, Measured Value” turned out to be 63.2 ± 3.1 mg/dL; the “Total Triglyceride in Serum, Measured Value” amounted to 108.0 ± 5.1 mg/dL.

For the compound `CC(C)c1cccc(C(C)C)c1NC(=O)CSCCCCCCN1CCN(c2ccccc2)CC1` [Compound 1, N-(2,6-Diisopropylphenyl)-2-[6-(4-phenylpiperazinyl)hexylthio]acetamide], the “Cholesterol in High Density Lipoprotein, Measured Value” was 46.0 ± 1.7 mg/dL; the “Cholesterol in Low Density Lipoprotein, Measured Value” was determined as 5.8 ± 2.0 mg/dL; the “Total Cholesterol in Serum, Measured Value” was found to be 51.8 ± 3.2 mg/dL; the “Total Triglyceride in Serum, Measured Value” worked out at 51.6 ± 2.7 mg/dL.

Another test concerns the target T1, ACAT (Oryctolagus cuniculus, UniProt G1SFD9).
T1 construct: A microsome fraction of a rabbit small intestine prepared in a usual manner; from tissue; host or cells: rabbit small intestine, microsome fraction
T1 sequence (G1SFD9 1-524): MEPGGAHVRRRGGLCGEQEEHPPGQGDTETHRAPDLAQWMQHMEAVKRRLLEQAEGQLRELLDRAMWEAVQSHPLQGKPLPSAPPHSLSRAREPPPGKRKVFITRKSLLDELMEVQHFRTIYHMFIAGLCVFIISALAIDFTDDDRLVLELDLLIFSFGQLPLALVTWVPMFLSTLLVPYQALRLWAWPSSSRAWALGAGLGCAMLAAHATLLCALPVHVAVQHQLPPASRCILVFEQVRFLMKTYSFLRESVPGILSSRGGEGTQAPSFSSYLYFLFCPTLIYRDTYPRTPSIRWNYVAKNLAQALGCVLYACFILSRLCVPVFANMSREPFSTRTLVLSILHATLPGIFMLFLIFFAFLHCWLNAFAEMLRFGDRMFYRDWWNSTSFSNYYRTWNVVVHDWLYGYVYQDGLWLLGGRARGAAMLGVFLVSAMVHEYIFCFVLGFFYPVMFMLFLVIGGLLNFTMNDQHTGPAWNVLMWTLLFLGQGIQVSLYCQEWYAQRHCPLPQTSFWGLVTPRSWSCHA
As to the kind of experiment: Test of ACAT Inhibitory Activity (rabbit small intestinal microsome fraction). It counts as biochemical. The settings on record: rabbit small intestinal microsomes, [1-14C]oleyl coenzyme, pH 7.4, 37° C., 6 minutes. As to the method:
Test of ACAT Inhibitory Activity
The test was carried out in accordance with the method described in J. Lipid Res., Vol. 22, p.
A microsome fraction of a rabbit small intestine prepared in a usual manner was suspended in a 0.04N potassium phosphate buffer solution (pH 7.4) containing 0.1N sucrose, 0.03N ethylenediaminetetraacetic acid (EDTA), and 0.05N potassium chloride. Each drug to be tested was dissolved in dimethyl sulfoxide.
The rabbit small intestinal microsome fraction suspension prepared above (250 μg as protein) and [1-^14 C]oleyl coenzyme were added to a 0.05N phosphate buffer solution (pH 7.4) containing 1% bovine serum albumin, followed by addition of a drug to be tested in a varied concentration. The total volume of the mixture was adjusted to 500 μl to prepare a sample. For control, a sample was prepared in the same manner, except for adding no test drug. The sample was incubated at 37° C. for 6 minutes, and the reaction was terminated by addition of a mixture of chloroform and methanol (mixing ratio=2:1). After stirring, the chloroform layer was collected and concentrated to dryness. […] A gel portion corresponding to cholesterol oleate was scraped, and its radioactivity was measured with a liquid scintillation counter (LSC-3000, manufactured by Aloka Co., Ltd.). Percent inhibition on ACAT activity was calculated using the following equation to obtain an IC50 value. [formula]
Take `CC(C)c1cccc(C(C)C)c1NC(=O)CSCCCCCCN1CCN(c2cccc(Cl)c2)CC1` [Compound 7, N-(2,6-Diisopropylphenyl)-2-{6-[4-(3-chlorophenyl)piperazinyl]hexylthio}acetamide]: the IC50 was in the range of 10 to 100 nM.

In turn, `CC(C)c1cccc(C(C)C)c1NC(=O)CSCCCCCCN1CCN(c2cccc(C(F)(F)F)n2)CC1` [Compound 14, N-(2,6-Diisopropylphenyl)-2-{6-[4-(6-trifluoromethyl-2-pyridyl)piperazinyl]hexylthio}acetamide] gave a 50% inhibitory concentration (IC50) of 10 to 100 nM.

Compound `CC(C)c1cccc(C(C)C)c1NC(=O)CSCCCCCCN1CCN(c2ncccn2)CC1` [Compound 6, N-(2,6-Diisopropylphenyl)-2-{6-[4-(2-pyrimidyl)piperazinyl]hexylthio}acetamide] displayed an IC50 of 10 to 100 nM.

Turning to `CC(C)c1cccc(C(C)C)c1NC(=O)CSCCCCCCN1CCN(c2cc(Cl)ccn2)CC1` [Compound 15, N-(2,6-Diisopropylphenyl)-2-{6-[4-(4-chloro-2-pyridyl)piperazinyl]hexylthio}acetamide], the IC50 fell in the range of 10 to 100 nM.

As for `Cc1cccc(N2CCN(CCCCCCSCC(=O)Nc3c(C(C)C)cccc3C(C)C)CC2)c1` [Compound 8, N-(2,6-Diisopropylphenyl)-2-{6-[4-(3-methylphenyl)piperazinyl]hexylthio}acetamide], the IC50 lay within 10 to 100 nM.

`CC(C)c1cccc(C(C)C)c1NC(=O)CSCCCCCCCN1CCN(c2ccccc2)CC1` [Compound 25, N-(2,6-Diisopropylphenyl)-2-[7-(4-phenylpiperazinyl)heptylthio]acetamide] displayed an IC50 of 10 to 100 nM.

The compound `COc1ccccc1N1CCN(CCCCCCSCC(=O)Nc2c(C(C)C)cccc2C(C)C)CC1` [Compound 2, N-(2,6-Diisopropylphenyl)-2-{6-[4-(2-methoxyphenyl)piperazinyl]hexylthio}acetamide dihydrochloride] showed an IC50 of 10 to 100 nM.

In turn, `CC(C)c1cccc(C(C)C)c1NC(=O)CSCCCCCCCCCCN1CCN(c2ccccc2)CC1` [Compound 23, N-(2,6-Diisopropylphenyl)-2-[10-(4-phenylpiperazinyl)decylthio]acetamide] had an IC50 of 10 to 100 nM.

`CC(C)c1cccc(C(C)C)c1NC(=O)CSCCCN1CCN(c2ccccc2)CC1` [Compound 18, N-(2,6-Diisopropylphenyl)-2-[3-(4-phenylpiperazinyl)propylthio]acetamide dihydrochloride] registered an IC50 of 10 to 100 nM.

As for `CC(C)c1cccc(C(C)C)c1NC(=O)CSCCCCN1CCN(c2ccccc2)CC1` [Compound 19, N-(2,6-Diisopropylphenyl)-2-[4-(4-phenylpiperazinyl)butylthio]acetamide dihydrochloride], the IC50 lay within 10 to 100 nM.

`CC(C)c1cccc(C(C)C)c1NC(=O)CSCCCCCCN1CCN(c2ccccc2[N+](=O)[O-])CC1` [Compound 12, N-(2,6-Diisopropylphenyl)-2-{6-[4-(2-nitrophenyl)piperazinyl]hexylthio}acetamide]: the IC50 was 10 to 100 nM.

Take `CC(C)c1cccc(C(C)C)c1NC(=O)CSCCCCCCN1CCN(c2ccccc2Cl)CC1` [Compound 4, N-(2,6-Diisopropylphenyl)-2-{6-[4-(2-chlorophenyl)piperazinyl]hexylthio}acetamide]: the IC50 was 10 to 100 nM.

Compound `CC(C)c1cccc(C(C)C)c1NC(=O)CSCCCCCCN1CCN(c2ccc(Cl)cc2)CC1` [Compound 16, N-(2,6-Diisopropylphenyl)-2-{6-[4-(4-chlorophenyl)piperazinyl]hexylthio}acetamide] displayed an IC50 of 10 to 100 nM.

Regarding `CC(C)c1cccc(C(C)C)c1NC(=O)CSCCCCCCN1CCN(c2cccc(C(F)(F)F)c2)CC1` [Compound 10, N-(2,6-Diisopropylphenyl)-2-{6-[4-(3-trifluoromethylphenyl)piperazinyl]hexylthio}acetamide], the IC50 lay within 10 to 100 nM.

The compound `CC(C)c1cccc(C(C)C)c1NC(=O)CSCCCCCCCCCCCCN1CCN(c2ccccc2)CC1` [Compound 24, N-(2,6-Diisopropylphenyl)-2-[12-(4-phenylpiperazinyl)dodecylthio]acetamide] had an IC50 of 10 to 100 nM.

For the compound `CC(C)c1cccc(C(C)C)c1NC(=O)CSCCCCCCCCCN1CCN(c2ccccc2)CC1` [Compound 22, N-(2,6-Diisopropylphenyl)-2-[9-(4-phenylpiperazinyl)nonylthio]acetamide], the IC50 was 10 to 100 nM.

With `CC(C)c1cccc(C(C)C)c1NC(=O)CSCCCCCCN1CCN(c2ccccc2)CC1` [Compound 1, N-(2,6-Diisopropylphenyl)-2-[6-(4-phenylpiperazinyl)hexylthio]acetamide], the IC50 lay within 10 to 100 nM.

In turn, `CC(C)c1cccc(C(C)C)c1NC(=O)CSCCCCCCN1CCN(c2ccccn2)CC1` [Compound 5, N-(2,6-Diisopropylphenyl)-2-{6-[4-(2pyridyl)piperazinyl]hexylthio}acetamide] gave an IC50 of 10 to 100 nM.

As for `COc1ccc(N2CCN(CCCCCCSCC(=O)Nc3c(C(C)C)cccc3C(C)C)CC2)cc1` [Compound 3, N-(2,6-Diisopropylphenyl)-2-{6-[4-(4methoxyphenyl)piperazinyl]hexylthio}acetamide], the IC50 was 10 to 100 nM.

Turning to `Cc1ccccc1N1CCN(CCCCCCSCC(=O)Nc2c(C(C)C)cccc2C(C)C)CC1` [Compound 9, N-(2,6-Diisopropylphenyl)-2-{6-[4-(2-methylphenyl)piperazinyl]hexylthio}acetamide fumarate], the IC50 is 10 to 100 nM.

For `CC(C)c1cccc(C(C)C)c1NC(=O)CSCCCCCCN1CCN(c2ccc(F)cc2)CC1` [Compound 11, N-(2,6-Diisopropylphenyl)-2-{6-[4-(4-fluorophenyl)piperazinyl]hexylthio}acetamide], the IC50 is 10 to 100 nM.

Consider `CC(C)c1cccc(C(C)C)c1NC(=O)CSCCN1CCN(c2ccccc2)CC1` [Compound 17, N-(2,6-Diisopropylphenyl)-2-[2-(4-phenylpiperazinyl)ethylthio]acetamide dihydrochloride], for which the IC50 is 10 to 100 nM.

The compound `CC(C)c1cccc(C(C)C)c1NC(=O)CSCCCCCCCCN1CCN(c2ccccc2)CC1` [Compound 21, N-(2,6-Diisopropylphenyl)-2-[8-(4-phenylpiperazinyl)octylthio]acetamide] yielded an IC50 of 1 to 10 nM.

The term IC50 denotes the concentration needed to halve the response being measured. A low value points to greater potency.
